Data on 11 compounds can be found in patent publication US4713457A, “Ergoline derivatives and acid addition salts thereof” (priority 1985, dated 1987).

Series [1] relates to ddY male mice, KCN-induced anoxia. The experiment in a line: Activity on KCN-induced anoxia in mice. It counts as in vivo, mouse. The settings on record: for Number of Survived Mice/Total Mice / Survival Time: KCN 2.5 mg/kg i.v.; for Brain protection activity (in words): Table 5.
The test system of series [2] is unanesthetized spontaneously hypertensive rats. The series can be described thus: Anti-hypertensive activity, systolic blood pressure, tail cuff method. It is filed as in vivo, rat. The settings on record: 10 mg/kg oral. The method, then:
(§1) The anti-hypertensive activity of the compounds was determined by the tail cuff method using unanesthetized spontaneously hypertensive rats weighing 300 to 350 g (21 to 25 week old). In this experiment, the systolic blood pressure was determined by the bloodless method using a hemodynamometer. The heart rate was determined simultaneously using a sphygmometer connected to the pulse output. After rats were placed under condition of 40° C. for 10 minutes, the blood pressure was determined by holding the rats in a holder. The test compounds were suspended in a 0.5 wt% aqueous gum arabic. Hydralazine hydrochloride used as a comparative agent was administered as an aqueous solution thereof. The volume of oral administration was 0.5 ml per 100 g of body weight.

Series [3] has the same test system. The series can be described thus: Heart rate determined simultaneously with blood pressure (sphygmometer connected to the pulse output). It is filed as in vivo, rat. The settings on record: 10 mg/kg oral. The method, then: as §1
Series [4] relates to Rats, pylorus portion ligated (gastric secretion). The series can be described thus: Gastric secretion inhibitory activity in pylorus-ligated rats. Conditions: 10 mg/kg into the duodenum, 6 hours. It counts as in vivo, rat. The method, then:
Rats weighing 200 to 250 g (8 rats per group) which have been fasting for 24 hours before testing were subjected to abdominal section under ether anesthesia, and the pylorus portion was ligated. Immediately after ligation, the test compound was administered into the duodenum as a suspension in a 5 wt% aqueous gum arabic at a volume of 2 ml/kg. The rats were sacrificed after 6 hours, and the stomach was extracted. The gastric juice was collected to determine the volume thereof, and the acidity of the gastic juice was titrated to a pH 7.0 with a 0.02N aqueous sodium hydroxide solution using a pH meter. The acid secretion amount per 6 hours (μEq/6 h) was calculated by (volume of gastric juice×acidity of gastric juice).

Where a name gives a salt, the structure may show the parent alone.

Take `CC(C)(CO)[C@@H](O)C(=O)NCCCC(=O)O` [Calsium Hopantenate]: in series [1] (500 mg/kg i.p.), the “Number of Survived Mice/Total Mice” value is given as 0/9 and the “Survival Time” value was determined as 43.8 ± 2.5 s. Moreover, the “Brain protection activity (in words)” value in series [1] is “did not show any significant activity”.
Take `CN1C[C@H](Cn2ccnc2)C[C@@H]2c3cccc4[nH]cc(c34)C[C@H]21` [Example 1, 1-(6-Methylergolin-8β-ylmethyl)imidazole]: the “Changes in Systolic Blood Pressure” value is -78 Δ mmHg in series [2] (1 hr after administration); -49 Δ mmHg in series [2] (2 hrs after administration); -48 Δ mmHg in series [2] (4 hrs after administration); -60 Δ mmHg in series [2] (6 hrs after administration); -14 Δ mmHg in series [2] (24 hrs after administration). For the same compound, the “Changes in Heart Rate” value is given as -39 Δ/min in series [3] (1 hr after administration); -56 Δ/min in series [3] (2 hrs after administration); -25 Δ/min in series [3] (4 hrs after administration); -58 Δ/min in series [3] (6 hrs after administration); -44 Δ/min in series [3] (24 hrs after administration). In addition, the “Volume of Acid Secreted, Inhibition” value in series [4] is recorded as 73.3%. The “Volume of Gastric Juice, Inhibition” value in series [4] is recorded as 67.8%. Moreover, the “Total Acidity” value in series [4] (*p < 0.05) turned out to be 62.9 ± 3.8 mEq/liter.
As to `CN1C[C@H](Cn2cccn2)C[C@@H]2c3cccc4[nH]cc(c34)C[C@H]21` [Example 4, 1-(6-Methylergolin-8β-ylmethyl)pyrazole], the “Changes in Systolic Blood Pressure” value was -37 Δ mmHg in series [2] (1 hr after administration); -51 Δ mmHg in series [2] (2 hrs after administration); -58 Δ mmHg in series [2] (4 hrs after administration); -49 Δ mmHg in series [2] (6 hrs after administration); -15 Δ mmHg in series [2] (24 hrs after administration). In addition, the “Changes in Heart Rate” value in series [3] (1 hr after administration) was -16 Δ/min; in series [3] (2 hrs after administration), -38 Δ/min; in series [3] (4 hrs after administration), -52 Δ/min; in series [3] (6 hrs after administration), -41 Δ/min; in series [3] (24 hrs after administration), -7 Δ/min.
Turning to `CN1C[C@H](CN2C(=O)CCC2=O)C[C@@H]2c3cccc4[nH]cc(c34)C[C@H]21` [Example 8, N-(6-methylergolin-8β-ylmethyl)succinimide], the “Changes in Systolic Blood Pressure” value is on record as -64 Δ mmHg in series [2] (1 hr after administration), -77 Δ mmHg in series [2] (2 hrs after administration), -59 Δ mmHg in series [2] (4 hrs after administration) and -66 Δ mmHg in series [2] (6 hrs after administration). The “Changes in Heart Rate” value is 6 Δ/min in series [3] (1 hr after administration), 3 Δ/min in series [3] (2 hrs after administration), -32 Δ/min in series [3] (4 hrs after administration) and -40 Δ/min in series [3] (6 hrs after administration).
As for `Cc1nccn1C[C@@H]1C[C@@H]2c3cccc4[nH]cc(c34)C[C@H]2N(C)C1` [Example 9, 2-Methyl-1-(6-methylergolin-8β-ylmethyl)imidazole], the “Changes in Systolic Blood Pressure” value is given as -50 Δ mmHg in series [2] (1 hr after administration); -59 Δ mmHg in series [2] (2 hrs after administration); -60 Δ mmHg in series [2] (4 hrs after administration); -55 Δ mmHg in series [2] (6 hrs after administration); -9 Δ mmHg in series [2] (24 hrs after administration). Also, the “Changes in Heart Rate” value in series [3] (1 hr after administration) is on record as -12 Δ/min; in series [3] (2 hrs after administration), -27 Δ/min; in series [3] (4 hrs after administration), -36 Δ/min; in series [3] (6 hrs after administration) it was -32 Δ/min; in series [3] (24 hrs after administration), -3 Δ/min.
Take `CCc1nccn1C[C@@H]1C[C@@H]2c3cccc4[nH]cc(c34)C[C@H]2N(C)C1` [Example 10, 2-Ethyl-1-(6-methylergolin-8β-ylmethyl)imidazole]: the “Changes in Systolic Blood Pressure” value in series [2] (1 hr after administration) is on record as -69 Δ mmHg; in series [2] (2 hrs after administration) it was -64 Δ mmHg; in series [2] (4 hrs after administration) it was -68 Δ mmHg; in series [2] (6 hrs after administration) it was -66 Δ mmHg. For the same compound, the “Changes in Heart Rate” value in series [3] (1 hr after administration) is given as 2 Δ/min; in series [3] (2 hrs after administration), -15 Δ/min; in series [3] (4 hrs after administration), -6 Δ/min; in series [3] (6 hrs after administration), -11 Δ/min.
With `CC(C)c1nccn1C[C@@H]1C[C@@H]2c3cccc4[nH]cc(c34)C[C@H]2N(C)C1` [Example 11, 2-Isopropyl-1-(6-methylergolin-8β-ylmethyl)imidazole], the “Changes in Systolic Blood Pressure” value in series [2] (1 hr after administration) was -53 Δ mmHg; in series [2] (2 hrs after administration) it was -56 Δ mmHg; in series [2] (4 hrs after administration), -54 Δ mmHg; in series [2] (6 hrs after administration), -58 Δ mmHg. Further, the “Changes in Heart Rate” value is on record as -37 Δ/min in series [3] (1 hr after administration), -21 Δ/min in series [3] (2 hrs after administration), -24 Δ/min in series [3] (4 hrs after administration) and -46 Δ/min in series [3] (6 hrs after administration).
For `CCCc1nccn1C[C@@H]1C[C@@H]2c3cccc4[nH]cc(c34)C[C@H]2N(C)C1` [Example 12, 1-(6-Methylergolin-8β-ylmethyl)-2-propylimidazole], the “Changes in Systolic Blood Pressure” value in series [2] (1 hr after administration) is -69 Δ mmHg; in series [2] (2 hrs after administration) it was -59 Δ mmHg; in series [2] (4 hrs after administration), -63 Δ mmHg; in series [2] (6 hrs after administration) it was -59 Δ mmHg. Moreover, the “Changes in Heart Rate” value in series [3] (1 hr after administration) was -25 Δ/min; in series [3] (2 hrs after administration), -7 Δ/min; in series [3] (4 hrs after administration), -8 Δ/min; in series [3] (6 hrs after administration), -5 Δ/min.
`CN1C[C@H](Cn2ccnc2-c2ccccc2)C[C@@H]2c3cccc4[nH]cc(c34)C[C@H]21` [Example 13, 1-(6-Methylergolin-8β-ylmethyl)-2-phenylimidazole]: the “Changes in Systolic Blood Pressure” value in series [2] (1 hr after administration) is reported as -52 Δ mmHg; in series [2] (2 hrs after administration) it was -46 Δ mmHg; in series [2] (4 hrs after administration) it was -54 Δ mmHg; in series [2] (6 hrs after administration), -48 Δ mmHg. Further, the “Changes in Heart Rate” value in series [3] (1 hr after administration) was -46 Δ/min; in series [3] (2 hrs after administration) it was -49 Δ/min; in series [3] (4 hrs after administration), -49 Δ/min.
On to `CCOC(=O)c1ncn(C[C@@H]2C[C@@H]3c4cccc5[nH]cc(c45)C[C@H]3N(C)C2)c1C` [Example 15B, ethyl 5-methyl-1-(6-methylergolin-8β-ylmethyl)-4-imidazolecarboxylate], for which the figures for the “Changes in Systolic Blood Pressure” value in series [2] (2 hrs after administration), in series [2] (4 hrs after administration) and in series [2] (6 hrs after administration) were -49 Δ mmHg, -59 Δ mmHg and -59 Δ mmHg, respectively. Moreover, the “Changes in Heart Rate” value in series [3] (1 hr after administration) is -4 Δ/min; in series [3] (2 hrs after administration) it was 5 Δ/min; in series [3] (4 hrs after administration), -8 Δ/min; in series [3] (6 hrs after administration), -11 Δ/min.
In the case of `CN(C)CCOC(=O)COc1ccc(Cl)cc1` [Meclofenoxate Hydrochloride], in series [1] (200 mg/kg i.p.), the “Number of Survived Mice/Total Mice” value was 0/6 and the “Survival Time” value turned out to be 47.7 ± 4.4 s. In addition, in series [1], the “Brain protection activity (in words)” value is reported as “did not show any significant activity”.
